Laboratory results from the NIST ThermoML archive (doi:10.1021/je900407u).

Assay: isobaric coefficient of expansion
Settings: Liquid, Micro DSCII

CCCCn1cc[n+](C)c1.O=S(=O)([O-])C(F)(F)F [1-butyl-3-methylimidazolium trifluoromethanesulfonate]
isobaric coefficient of expansion
Settings | 5000 kPa | 10000 kPa | 15000 kPa | 20000 kPa | 25000 kPa | 30000 kPa | 35000 kPa | 40000 kPa | 45000 kPa | 50000 kPa
278.15 K | 0.000621 1/K | 0.000612 1/K | 0.000603 1/K | 0.000599 1/K | 0.00059 1/K | 0.000585 1/K | 0.000579 1/K | 0.000575 1/K | 0.000566 1/K | 0.000561 1/K
288.15 K | 0.000617 1/K | 0.000607 1/K | 0.000599 1/K | 0.000593 1/K | 0.000588 1/K | 0.00058 1/K | 0.000574 1/K | 0.000566 1/K | 0.000561 1/K | 0.000558 1/K
298.15 K | 0.00061 1/K | 0.000604 1/K | 0.000595 1/K | 0.000588 1/K | 0.000581 1/K | 0.000574 1/K | 0.000566 1/K | 0.000559 1/K | 0.000554 1/K | 0.000549 1/K
308.15 K | 0.000606 1/K | 0.000597 1/K | 0.000587 1/K | 0.000581 1/K | 0.000574 1/K | 0.000568 1/K | 0.000562 1/K | 0.000556 1/K | 0.000548 1/K | 0.000543 1/K
318.15 K | 0.0006 1/K | 0.000595 1/K | 0.000585 1/K | 0.000579 1/K | 0.000571 1/K | 0.000564 1/K | 0.000557 1/K | 0.000551 1/K | 0.000544 1/K | 0.000539 1/K
328.15 K | 0.000596 1/K | 0.000586 1/K | 0.000581 1/K | 0.000574 1/K | 0.000565 1/K | 0.000559 1/K | 0.000552 1/K | 0.000544 1/K | 0.000538 1/K | 0.000534 1/K
338.15 K | 0.000594 1/K | 0.000585 1/K | 0.000578 1/K | 0.000571 1/K | 0.000562 1/K | 0.000556 1/K | 0.000548 1/K | 0.000542 1/K | 0.000537 1/K | 0.000532 1/K
348.15 K | 0.000591 1/K | 0.000583 1/K | 0.000574 1/K | 0.000568 1/K | 0.000559 1/K | 0.000552 1/K | 0.000547 1/K | 0.00054 1/K | 0.000535 1/K | 0.00053 1/K
